Assay results as given in patent publication US20230112306A1, “METHODS OF CONTROLLING OR PREVENTING INFESTATION OF SOYBEAN PLANTS BY THE PHYTOPATHOGENIC MICROORGANISM CORYNESPORA CASSIICOLA” (SYNGENTA CROP PROTECTION AG, priority 2020, published 2023).

Tested on: Corynespora cassiicola
Test: Corynespora cassiicola (target leaf spot) growth inhibition in nutrient broth, microtiter plate
Assay type: cell-based
Conditions: PDB broth, 24° C., photometric at 620 nm after 3-4 days, vs untreated check, read-out: % control of Corynespora cassiicola (inhibition of growth)
Procedure: Example 1: Corynespora Cassiicola (Target Leaf Spot) Conidia of the fungus from cryogenic storage were directly mixed into nutrient broth (PDB potato dextrose broth). A DMSO solution of the test compounds was placed into a microtiter plate (96-well format) and the nutrient broth containing the fungal spores was added to it. The test plates were incubated at 24° C. and the inhibition of growth (% control of Corynespora cassiicola) was determined photometrically after 3-4 days at 620 nm. The activity of a compound is derived by comparing the inhibition of growth in the treated test solution to the growth in the untreated check. The concentration of the compounds was 6.7, 2.2, 0.74, 0.25, and 0.082 ppm.

With `CC1(C)N=C(c2cnc3c(F)cccc3c2)c2ccsc2C1(F)F` [Ic, 7,7-Difluoro-4-(8-fluoro-3-quinolyl)-6,6-dimethyl-6,7-dihydro-1-thia-5-azaindene] the inhibition at 0.25 ppm was ≥ 20%, the inhibition at 0.74 ppm was ≥ 50% and the inhibition at 2.2 ppm was ≥ 70%. The inhibition at 6.7 ppm was ≥ 70%.
In the case of `Cc1cc(C2=NC(C)(C)C(F)(F)c3ccccc32)cnc1C(F)F` [la, 5-(4,4-Difluoro-3,3-dimethyl-3,4-dihydro-1-isoquinolyl)-2-(difluoromethyl)-3-methylpyridine], the inhibition at 0.25 ppm is reported as ≥ 20%, the inhibition at 0.74 ppm is reported as ≥ 50% and the inhibition at 2.2 ppm is reported as ≥ 70%. The inhibition at 6.7 ppm was ≥ 70%.
